Data taken from US20250121013A1, “USE OF BACILLUS AMYLOLIQUEFACIENS FOR PREVENTING AND TREATING PARKINSON'S DISEASE” (Artugen Therapeutics Ltd., priority 2021, published 2025).
In brackets after ≈: the same amount, converted by molar mass.

Tests used:
[1] = system: ART24; test: Antibiotic susceptibility of ART24, MIC, VetMIC panels (Table 2); format: cell-based, Bacillus amyloliquefaciens; conditions: for MIC: Bacillus amyloliquefaciens, read-out: ART24 MIC
Method: The minimum inhibitory concentration (MIC) of the listed antimicrobials is expressed as μg/mL. […] The wells of the prefabricated 96-well plates were filled with 100 μL of the final suspension. The plates were sealed with an […], Sigma Aldrich) sealing film (to facilitate growth of the aerobic Bacillus. The plates were then incubated for 24 hr at 37° C. The results are recorded after 24 hours as the lowest concentration of the antibiotic to inhibit visible growth. The prefabricated panels […], Uppsala, Sweden) comprising the antibiotics ampicillin, vancomycin, gentamicin, kanamycin, streptomycin, erythromycin, clindamycin, tetracycline, chloramphenicol, neomycin, penicillin, quinupristin-dalfopristin, linezolid, trimethoprim, ciprofloxacin and rifampicin were used.

[2] = system: ART24; test: Antibiotic susceptibility of ART24 lots and cell banks, MIC following EFSA testing recommendations (Table 3); format: cell-based, Bacillus amyloliquefaciens; conditions: for MIC: Bacillus amyloliquefaciens
Method: The minimum inhibitory concentration (MIC) of the listed antimicrobials is expressed as μg/mL. Additional studies following EFSA testing recommendations were performed on lyophilized ART24 lots CO-33-10A2 and CO-33-12A2 and Research and Master Cell Banks CO-33-ART24 BHI and CO-33-ART24 SYD, and those results are shown in Table 3.

[3] = 24 hr at 37° C., average results from N = 6
[4] = ART24 source: cell bank CO-33 ART 24 BHI
[5] = ART24 source: cell bank CO-33 ART 024 SYD
[6] = ART24 source: lyophilized lot CO-33-10A2
[7] = ART24 source: lyophilized lot CO-33-12A2
[8] = ART24 source: cell bank CO-33 ART 24 BHI, read-out: MIC, CO-33 ART 24 BHI
[9] = ART24 source: cell bank CO-33 ART 024 SYD, read-out: MIC, CO-33 ART 024 SYD
[10] = ART24 source: lyophilized lot CO-33-10A2, read-out: MIC, CO-33-10A2
[11] = ART24 source: lyophilized lot CO-33-12A2, read-out: MIC, CO-33-12A2

Compound | MIC [1, 3] | MIC interpretation, CO-33 ART 24 BHI [2, 4] | MIC interpretation, CO-33 ART 024 SYD [2, 5] | MIC interpretation, CO-33-10A2 [2, 6] | MIC interpretation, CO-33-12A2 [2, 7] | MIC [2, 8] | MIC [2, 9] | MIC [2, 10] | MIC [2, 11] | further results
CC1(C)S[C@@H]2[C@H](NC(=O)[C@H](N)c3ccccc3)C(=O)N2[C@H]1C(=O)O [Ampicillin] | 0.25 µg/mL (≈ 0.715 µM) | S | S | S | S | ≤ 0.03 µg/mL | ≤ 0.03 µg/mL | ≤ 0.03 µg/mL | ≤ 0.03 µg/mL | –
O=C(N[C@H](CO)[C@H](O)c1ccc([N+](=O)[O-])cc1)C(Cl)Cl [Chloramphenicol] | 4 µg/mL (≈ 12.4 µM) | S | S | S | S | 2 µg/mL (≈ 6.19 µM) | 2 µg/mL (≈ 6.19 µM) | 2 µg/mL (≈ 6.19 µM) | 2 µg/mL (≈ 6.19 µM) | –
O=C(O)c1cn(C2CC2)c2cc(N3CCNCC3)c(F)cc2c1=O [Ciprofloxacin] | ≤ 0.25 µg/mL | S | S | S | S | ≤ 0.03 µg/mL | ≤ 0.03 µg/mL | ≤ 0.03 µg/mL | ≤ 0.03 µg/mL | –
CCC[C@@H]1C[C@@H](C(=O)N[C@@H]([C@H]2O[C@H](SC)[C@H](O)[C@@H](O)[C@H]2O)[C@H](C)Cl)N(C)C1 [Clindamycin] | 0.5 to 1 µg/mL (≈ 1.18 to 2.35 µM) | S | S | S | S | 0.25 µg/mL (≈ 0.588 µM) | 0.25 µg/mL (≈ 0.588 µM) | 0.12 µg/mL (≈ 0.282 µM) | 0.25 µg/mL (≈ 0.588 µM) | –
CC[C@H]1OC(=O)[C@H](C)[C@@H](O[C@H]2C[C@@](C)(OC)[C@@H](O)[C@H](C)O2)[C@H](C)[C@@H](O[C@@H]2O[C@H](C)C[C@H](N(C)C)[C@H]2O)[C@](C)(O)C[C@@H](C)C(=O)[C@H](C)[C@@H](O)[C@]1(C)O [Erythromycin] | 0.12 µg/mL (≈ 0.164 µM) | S | S | S | S | 0.12 µg/mL (≈ 0.164 µM) | 0.12 µg/mL (≈ 0.164 µM) | 0.06 µg/mL (≈ 0.0818 µM) | 0.06 µg/mL (≈ 0.0818 µM) | –
CCc1c(Cl)c(O)c(Cl)c(O)c1C(=O)O[C@H]1[C@H](O)[C@H](OC)[C@H](OC/C2=C\C=C\C[C@H](O)/C(C)=C/[C@H](CC)[C@@H](O[C@@H]3OC(C)(C)[C@@H](OC(=O)C(C)C)[C@H](O)[C@@H]3O)/C(C)=C/C(C)=C/C[C@@H]([C@@H](C)O)OC2=O)O[C@@H]1C [Fidaxomicin] | – | – | – | – | – | 4 µg/mL (≈ 3.78 µM) | 4 µg/mL (≈ 3.78 µM) | 2 µg/mL (≈ 1.89 µM) | 4 µg/mL (≈ 3.78 µM) | –
NC[C@H]1O[C@H](O[C@H]2[C@H](O)[C@@H](O[C@H]3O[C@H](CO)[C@@H](O)[C@H](N)[C@H]3O)[C@H](N)C[C@@H]2N)[C@H](O)[C@@H](O)[C@@H]1O [Kanamycin] | ≤ 2 µg/mL | S | S | S | S | ≤ 0.5 µg/mL | ≤ 0.5 µg/mL | ≤ 0.5 µg/mL | ≤ 0.5 µg/mL | –
CC(=O)NC[C@H]1CN(c2ccc(N3CCOCC3)c(F)c2)C(=O)O1 [Linezolid] | 0.5 µg/mL (≈ 1.48 µM) | – | – | – | – | 0.5 µg/mL (≈ 1.48 µM) | 0.5 µg/mL (≈ 1.48 µM) | 0.25 µg/mL (≈ 0.741 µM) | 0.5 µg/mL (≈ 1.48 µM) | –
Cc1ncc([N+](=O)[O-])n1CCO [Metronidazole] | – | – | – | – | – | – | – | – | – | MIC ([2]; aerobic, ART24 source CO-33-10A2, read-out: MIC, CO-33-10A2 (aerobic)): > 64 µg/mL; MIC ([2]; aerobic, ART24 source CO-33-12A2, read-out: MIC, CO-33-12A2 (aerobic)): > 64 µg/mL; MIC ([2]; aerobic, ART24 source CO-33 ART 24 BHI, read-out: MIC, CO-33 ART 24 BHI (aerobic)): > 64 µg/mL; MIC ([2]; aerobic, ART24 source CO-33 ART 024 SYD, read-out: MIC, CO-33 ART 024 SYD (aerobic)): > 64 µg/mL; MIC ([2]; anaerobic, ART24 source CO-33-10A2, read-out: MIC, CO-33-10A2 (anaerobic)): 64 µg/mL (≈ 374 µM); MIC ([2]; anaerobic, ART24 source CO-33-12A2, read-out: MIC, CO-33-12A2 (anaerobic)): 64 µg/mL (≈ 374 µM); MIC ([2]; anaerobic, ART24 source CO-33 ART 24 BHI, read-out: MIC, CO-33 ART 24 BHI (anaerobic)): 64 µg/mL (≈ 374 µM); MIC ([2]; anaerobic, ART24 source CO-33 ART 024 SYD, read-out: MIC, CO-33 ART 024 SYD (anaerobic)): 64 µg/mL (≈ 374 µM)
CO[C@H]1/C=C/O[C@@]2(C)Oc3c(C)c(O)c4c(O)c(c(/C=N/N5CCN(C)CC5)c(O)c4c3C2=O)NC(=O)/C(C)=C\C=C\[C@H](C)[C@H](O)[C@@H](C)[C@@H](O)[C@@H](C)[C@H](OC(C)=O)[C@@H]1C [Rifampicin] | 0.5 µg/mL (≈ 0.608 µM) | S | S | S | S | 0.25 µg/mL (≈ 0.304 µM) | 0.25 µg/mL (≈ 0.304 µM) | 0.25 µg/mL (≈ 0.304 µM) | 0.25 µg/mL (≈ 0.304 µM) | –
[H]/N=C(/N)N[C@H]1[C@H](O)[C@@H](O)[C@H](O[C@@H]2O[C@@H](C)[C@](O)(C=O)[C@H]2O[C@@H]2O[C@@H](CO)[C@H](O)[C@@H](O)[C@@H]2NC)[C@@H](N/C(N)=N\[H])[C@@H]1O [Streptomycin] | 4 µg/mL (≈ 6.88 µM) | S | S | S | S | 1 µg/mL (≈ 1.72 µM) | 2 µg/mL (≈ 3.44 µM) | 1 µg/mL (≈ 1.72 µM) | 1 µg/mL (≈ 1.72 µM) | –
CN(C)[C@@H]1C(O)=C(C(N)=O)C(=O)[C@@]2(O)C(O)=C3C(=O)c4c(O)cccc4[C@@](C)(O)[C@H]3C[C@@H]12 [Tetracycline] | 4 µg/mL (≈ 9 µM) | S | S | S | S | 2 µg/mL (≈ 4.5 µM) | 2 µg/mL (≈ 4.5 µM) | 2 µg/mL (≈ 4.5 µM) | 2 µg/mL (≈ 4.5 µM) | –
COc1cc(Cc2cnc(N)nc2N)cc(OC)c1OC [Trimethoprim] | ≤ 0.12 µg/mL | – | – | – | – | ≤ 0.25 µg/mL | ≤ 0.25 µg/mL | ≤ 0.25 µg/mL | ≤ 0.25 µg/mL | –
CN[C@H](CC(C)C)C(=O)N[C@H]1C(=O)N[C@@H](CC(N)=O)C(=O)N[C@H]2C(=O)N[C@H]3C(=O)N[C@H](C(=O)N[C@H](C(=O)O)c4cc(O)cc(O)c4-c4cc3ccc4O)[C@H](O)c3ccc(c(Cl)c3)Oc3cc2cc(c3O[C@@H]2O[C@H](CO)[C@@H](O)[C@H](O)[C@H]2O[C@H]2C[C@](C)(N)[C@H](O)[C@H](C)O2)Oc2ccc(cc2Cl)[C@H]1O [Vancomycin] | – | S | S | S | S | – | – | – | – | MIC ([1]; 24 h): 0.5 to 1 µg/mL (≈ 0.345 to 0.69 µM); MIC ([2]; read-out: MIC, CO-33-10A2): ≤ 0.25 µg/mL; MIC ([2]; read-out: MIC, CO-33-12A2): ≤ 0.25 µg/mL; MIC ([2]; read-out: MIC, CO-33 ART 24 BHI): 0.5 µg/mL (≈ 0.345 µM); MIC ([2]; read-out: MIC, CO-33 ART 024 SYD): ≤ 0.25 µg/mL
Gentamicin | – | S | S | S | S | – | – | – | – | ART24 MIC [1, 3]: ≤0.5 µg/mL; MIC, CO-33 ART 24 BHI [2, 4]: ≤ 0.06 µg/mL; MIC, CO-33 ART 024 SYD [2, 5]: ≤ 0.06 µg/mL; MIC, CO-33-10A2 [2, 6]: ≤ 0.06 µg/mL; MIC, CO-33-12A2 [2, 7]: ≤ 0.06 µg/mL
Neomycin | – | – | – | – | – | – | – | – | – | ART24 MIC [1, 3]: ≤0.5 µg/mL; MIC, CO-33 ART 24 BHI [2, 4]: ≤0.12 µg/mL; MIC, CO-33 ART 024 SYD [2, 5]: ≤0.12 µg/mL; MIC, CO-33-10A2 [2, 6]: ≤0.12 µg/mL; MIC, CO-33-12A2 [2, 7]: ≤0.12 µg/mL
Penicillin | – | S | S | S | S | – | – | – | – | ART24 MIC [1, 3]: 0.12 to 0.5 µg/mL; MIC, CO-33 ART 24 BHI [2, 4]: ≤ 0.03 µg/mL; MIC, CO-33 ART 024 SYD [2, 5]: 0.06 µg/mL; MIC, CO-33-10A2 [2, 6]: ≤ 0.03 µg/mL; MIC, CO-33-12A2 [2, 7]: ≤ 0.03 µg/mL
Quinupristin-dalfopristin | – | – | – | – | – | – | – | – | – | ART24 MIC [1, 3]: 4 µg/mL; MIC, CO-33 ART 24 BHI [2, 4]: 2 µg/mL; MIC, CO-33 ART 024 SYD [2, 5]: 2 µg/mL; MIC, CO-33-10A2 [2, 6]: 1 µg/mL; MIC, CO-33-12A2 [2, 7]: 2 µg/mL
